The text below walks through data of ChEMBL document CHEMBL1697821, “Development of a phospholipidosis database and predictive quantitative structure-activity relationship (QSAR) models” (Toxicol Mech Methods, 2008).

The subject of this series is Phospholipidosis. Description: Literature-mined public compounds from Kruhlak et al phospholipidosis modelling dataset.

*1 amine or outer side, *2 acyl side, *3 side chain or, on linkers, in order; H or OH if unused. Where a SMILES comes first, the peptide text is derived from it. Bridges are numbered along the chain shown (N, C = ends). [ ]: non-standard residue; d: D form. The star is where a group is joined. X1 = NC1=N[C@@H]([C@H](N[*:1])C(=O)[*:2])C[C@H](O)N1; ΔAla(Z-3-ureido) = NC(=O)N/C=C(\N)C(=O)O; β3hOrn = NCCC[C@H](N)CC(=O)*; Dap = NC[C@H](N)C(=O)O

Take `Cc1ccsc1C(=CCCN1CCC[C@@H](C(=O)O)C1)c1sccc1C` [TIAGABINE]: the Phospholipidosis result was “Negative: based on the absence of positive reported data from WMDD”. As for `O=C(Cn1c(=O)sc2ccc(Cl)cc21)N1CCN(CCO)CC1` [TIARAMIDE], the entry is “Negative: based on the absence of positive reported data from WMDD”; as for `Clc1ccccc1CN1CCc2sccc2C1` [TICLOPIDINE], “Negative: based on the absence of positive reported data from WMDD”; as for `CCN(CC)CCOc1ccc2c(c1)C(=O)c1cc(OCCN(CC)CC)ccc1-2` [TILORONE], “Positive: strong inducer confirmed by electron microscopy”. Then `O=C(O)C1CSCN1` (stereo not given) [TIMONACIC], with “Negative: based on the absence of positive reported data from WMDD”. Then `CC(S)C(=O)NCC(=O)O` (stereo not given) [TIOPRONIN], with “Negative: based on the absence of positive reported data from WMDD”; and `Clc1ccc2nsnc2c1NC1=NCCN1` [TIZANIDINE], with “Negative: based on the absence of positive reported data from WMDD”. Consider `NC[C@H]1O[C@H](O[C@H]2[C@H](O)[C@@H](O[C@H]3O[C@H](CO)[C@@H](O)[C@H](N)[C@H]3O)[C@H](N)C[C@@H]2N)[C@H](N)C[C@@H]1O` [TOBRAMYCIN], for which the Phospholipidosis result is reported as “Positive: strong inducer confirmed by electron microscopy”. Then `Cc1ccc(C(=O)c2cc(O)c(O)c([N+](=O)[O-])c2)cc1` [TOLCAPONE], with “Negative: based on the absence of positive reported data from WMDD”. Then `Cc1ccc(C(=O)C(C)CN2CCCCC2)cc1` (stereo not given) [TOLPERISONE], with “Negative: based on the absence of positive reported data from WMDD”; and `CN(C)CCOc1ccc(/C(=C(/CCCl)c2ccccc2)c2ccccc2)cc1` [TOREMIFENE], with “Negative: based on the absence of positive reported data from WMDD”. As for `COc1cccc(C2(O)CCCCC2CN(C)C)c1` (stereo not given) [TRAMADOL], the entry is “Negative: based on the absence of positive reported data from WMDD”; as for `CCOC(=O)[C@H](CCc1ccccc1)N[C@@H](C)C(=O)N1[C@H](C(=O)O)C[C@H]2CCCC[C@@H]21` [TRANDOLAPRIL], “Negative: based on the absence of positive reported data from WMDD”; as for `OCC(Br)(Br)Br` [TRIBROMOETHANOL], “Negative: based on the absence of positive reported data from WMDD”.

Regarding `NS(=O)(=O)c1cc2c(cc1Cl)NC(C(Cl)Cl)NS2(=O)=O` (stereo not given) [TRICHLORMETHIAZIDE], the Phospholipidosis entry is “Negative: based on the absence of positive reported data from WMDD”. As for `O=C(CCCN1CCC(O)(c2cccc(C(F)(F)F)c2)CC1)c1ccc(F)cc1` [TRIFLUPERIDOL], the entry is “Negative: based on the absence of positive reported data from WMDD”; as for `CCC(COC(=O)c1cc(OC)c(OC)c(OC)c1)(c1ccccc1)N(C)C` (stereo not given) [TRIMEBUTINE], “Negative: based on the absence of positive reported data from WMDD”. Consider `CN1C(=O)OC(C)(C)C1=O` [TRIMETHADIONE], for which the Phospholipidosis entry is on record as “Negative: based on the absence of positive reported data from WMDD”. On to `COc1cc(Cc2cnc(N)nc2N)cc(OC)c1OC` [TRIMETHOPRIM], for which the Phospholipidosis result is on record as “Negative: based on the absence of positive reported data from WMDD”. With `COc1cc(C(=O)N2CCOCC2)cc(OC)c1OC` [TRIMETOZINE], the Phospholipidosis result is on record as “Negative: based on the absence of positive reported data from WMDD”.

Turning to `CC(CN(C)C)CN1c2ccccc2CCc2ccccc21` (stereo not given) [TRIMIPRAMINE], the Phospholipidosis entry was “Positive: weak inducer based on presence of foamy macrophages and cytoplasmic vacuolations”. As for `CCN(CC)CCOc1ccc(C(O)(Cc2ccc(Cl)cc2)c2ccc(C)cc2)cc1` (stereo not given) [TRIPARANOL], the entry is “Positive: strong inducer confirmed by electron microscopy”; as for `CN(C)CCN(Cc1ccccc1)c1ccccn1` [TRIPELENNAMINE], “Positive: weak inducer based on presence of foamy macrophages and cytoplasmic vacuolations”; as for `Cc1ccc(/C(=C\CN2CCCC2)c2ccccn2)cc1` [TRIPROLIDINE], “Negative: based on the absence of positive reported data from WMDD”. Then `Cc1c(C)c2c(c(C)c1O)CCC(C)(COc1ccc(CC3SC(=O)NC3=O)cc1)O2` (stereo not given) [TROGLITAZONE], with “Negative: based on the absence of positive reported data from WMDD”; and `CCCC(CCC)C(=O)O` [VALPROIC ACID], with “Negative: confirmed by electron microscopy”. As for `CCCC(CCC)C(N)=O` [VALPROMIDE], the entry is “Negative: based on the absence of positive reported data from WMDD”. With `COc1ccc(C(CN(C)C)C2(O)CCCCC2)cc1` (stereo not given) [VENLAFAXINE], the Phospholipidosis result is listed as “Negative: based on the absence of positive reported data from WMDD”.

For `CC[C@]1(O)C[C@@H]2CN(CCc3c([nH]c4ccccc34)[C@@](C(=O)OC)(c3cc4c(cc3OC)N(C)[C@H]3[C@@](O)(C(=O)OC)[C@H](OC(C)=O)[C@]5(CC)C=CCN6CC[C@]43[C@@H]65)C2)C1` [VINBLASTINE], the Phospholipidosis entry was “Negative: confirmed by electron microscopy”. As to `CC[C@]1(O)C[C@@H]2CN(CCc3c([nH]c4ccccc34)[C@@](C(=O)OC)(c3cc4c(cc3OC)N(C)[C@H]3[C@@](O)(C(N)=O)[C@H](O)[C@]5(CC)C=CCN6CC[C@]43[C@@H]65)C2)C1` [VINDESINE], the Phospholipidosis result is “Negative: based on the absence of positive reported data from WMDD”.

Regarding `NCCC[C@H](N)CC(=O)N[C@H]1CNC(=O)[C@H]([C@H]2C[C@H](O)NC(N)=N2)NC(=O)/C(=C/NC(N)=O)NC(=O)[C@H](CO)NC(=O)[C@H](CO)NC1=O` [VIOMYCIN] (β3hOrn-[Dap]SS[ΔAla(Z-3-ureido)][X1]; lactam 1-C), the Phospholipidosis entry is reported as “Negative: based on the absence of positive reported data from WMDD”. Turning to `CC(=O)CC(c1ccccc1)c1c(O)c2ccccc2oc1=O` (stereo not given) [WARFARIN], the Phospholipidosis result is reported as “Negative: based on the absence of positive reported data from WMDD”.

For `O=C[C@H](O)[C@@H](O)[C@H](O)CO` [XYLOSE], the Phospholipidosis entry was “Negative: based on the absence of positive reported data from WMDD”.

For `C[C@H]1CCC[C@H](O)CCCCCc2cc(O)cc(O)c2C(=O)O1` [ZERANOL], the Phospholipidosis result is listed as “Negative: based on the absence of positive reported data from WMDD”.

For `Cc1cn([C@H]2C[C@H](N=[N+]=[N-])[C@@H](CO)O2)c(=O)[nH]c1=O` [ZIDOVUDINE], the Phospholipidosis result is reported as “Negative: confirmed by electron microscopy”. Then `CN(C)C/C=C(/c1ccc(Br)cc1)c1cccnc1` [ZIMELDINE], with “Positive: strong inducer confirmed by electron microscopy”; and `O=C1Cc2cc(CCN3CCN(c4nsc5ccccc45)CC3)c(Cl)cc2N1` [ZIPRASIDONE], with “Negative: based on the absence of positive reported data from WMDD”.

As for `COc1cccc2c1C(=O)c1c(O)c3c(c(O)c1C2=O)C[C@@](O)(/C(C)=N/NC(=O)c1ccccc1)C[C@@H]3O[C@H]1C[C@H](N)[C@H](O)[C@H](C)O1` [ZORUBICIN], the Phospholipidosis entry is recorded as “Negative: based on the absence of positive reported data from WMDD”. As for IVERMECTIN, the entry is “Negative: based on the absence of positive reported data from WMDD”.

As for POLYSORBATE 80, the Phospholipidosis result was “Negative: based on the absence of positive reported data from WMDD”.
